From PubChem BioAssay (NCI)
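A five-concentration, 48-hour dose response in 96-well plates underlies each endpoint, interpolated linearly between surrounding concentrations. GI50: concentration for 50% inhibition of growth. TGI denotes the concentration required for complete inhibition of growth.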

Columns and labels:
Assay in all cases: DTP human tumour cell line panel, 48 h
[1] = test system: SF-268 CNS
[2] = test system: KM12 colon
[3] = test system: CAKI-1 renal
[4] = test system: MDA-MB-231 breast
[5] = test system: SK-MEL-2 melanoma
[6] = test system: M14 melanoma
[7] = test system: CCRF-CEM leukemia
[8] = test system: SK-MEL-28 melanoma
[9] = test system: HCT-15 colon
[10] = test system: OVCAR-5 ovarian
[11] = test system: K-562 leukemia
[12] = test system: MALME-3M melanoma
[13] = test system: T-47D breast
[14] = test system: SR leukemia
[15] = test system: BT-549 breast
[16] = test system: HOP-92 NSCLC
[17] = test system: ACHN renal
[18] = test system: OVCAR-8 ovarian
[19] = test system: SK-MEL-5 melanoma
[20] = test system: NCI-H226 lung
[21] = test system: RXF 393 renal
[22] = test system: HOP-62 NSCLC
[23] = test system: HCT-116 colon
[24] = test system: SF-539 CNS
[25] = test system: SNB-19 CNS
[26] = test system: SF-295 CNS
[27] = test system: UACC-62 melanoma
[28] = test system: NCI-H522 lung
[29] = test system: MOLT-4 leukemia
[30] = test system: LOX IMVI melanoma
[31] = test system: HCC-2998 colon
[32] = test system: UO-31 renal
[33] = test system: TK-10 renal
[34] = test system: MDA-MB-435
[35] = test system: UACC-257 melanoma
[36] = test system: HT29 colon
[37] = test system: NCI-H23 lung
[38] = test system: A549 NSCLC
[39] = test system: SNB-75 CNS
[40] = test system: NCI-H460 lung
[41] = test system: DU-145 prostate
[42] = test system: OVCAR-4 ovarian
[43] = test system: IGROV1 ovarian
[44] = test system: SN12C renal
[45] = test system: RPMI-8226 leukemia
[46] = test system: 786-0 renal
[47] = test system: EKVX NSCLC
[48] = test system: SW-620 colon
[49] = test system: U251 CNS
[50] = test system: MCF7 breast
[51] = test system: A498 renal
[52] = test system: HS 578T breast
[53] = test system: NCI/ADR-RES ovarian

Q: What does the source list for COc1cc(/C=N/n2cnc3oc(-c4ccccc4)cc3c2=N)cc(CN2CCCCC2)c1O?
A: GI50 [1]: 1970 nM; TGI [1]: 4030 nM; GI50 [2]: 1810 nM; TGI [2]: 3390 nM; GI50 [3]: 1430 nM; TGI [3]: 2770 nM; GI50 [4]: 1640 nM; TGI [4]: 3350 nM; GI50 [5]: 1790 nM; TGI [5]: 3660 nM; GI50 [6]: 1560 nM; TGI [6]: 3180 nM; GI50 [7]: 324 nM; TGI [7]: 1250 nM; GI50 [8]: 1630 nM; TGI [8]: 3250 nM; GI50 [9]: 1770 nM; TGI [9]: 3490 nM; GI50 [10]: 1890 nM; TGI [10]: 3460 nM; GI50 [11]: 201 nM; TGI [11]: 458 nM; GI50 [12]: 1790 nM; TGI [12]: 3720 nM; GI50 [13]: 2040 nM; TGI [13]: 4620 nM; GI50 [14]: 247 nM; TGI [14]: 687 nM; GI50 [15]: 2120 nM; TGI [15]: 4190 nM; GI50 [16]: 1480 nM; TGI [16]: 3280 nM; GI50 [17]: 1360 nM; TGI [17]: 2670 nM; GI50 [18]: 1950 nM; TGI [18]: 4700 nM; GI50 [19]: 1760 nM; TGI [19]: 3170 nM; GI50 [20]: 2010 nM; TGI [20]: 4550 nM; GI50 [21]: 1410 nM; TGI [21]: 3150 nM; GI50 [22]: 1790 nM; TGI [22]: 3770 nM; GI50 [23]: 310 nM; TGI [23]: 959 nM; GI50 [24]: 1750 nM; TGI [24]: 3330 nM; GI50 [25]: 1980 nM; TGI [25]: 3730 nM; GI50 [26]: 1830 nM; TGI [26]: 3390 nM; GI50 [27]: 1830 nM; TGI [27]: 3350 nM; GI50 [28]: 2010 nM; TGI [28]: 4510 nM; GI50 [29]: 2250 nM; TGI [29]: 6570 nM; GI50 [30]: 444 nM; TGI [30]: 1520 nM; GI50 [31]: 1850 nM; TGI [31]: 3340 nM; GI50 [32]: 1390 nM; TGI [32]: 2920 nM; GI50 [33]: 1910 nM; TGI [33]: 3460 nM; GI50 [34]: 1640 nM; TGI [34]: 3060 nM; GI50 [35]: 1930 nM; TGI [35]: 3880 nM; GI50 [36]: 489 nM; TGI [36]: 1790 nM; GI50 [37]: 1810 nM; TGI [37]: 3570 nM; GI50 [38]: 1700 nM; TGI [38]: 3450 nM; GI50 [39]: 1390 nM; TGI [39]: 2790 nM; GI50 [40]: 1430 nM; TGI [40]: 3080 nM; GI50 [41]: 1800 nM; TGI [41]: 3320 nM; GI50 [42]: 1750 nM; TGI [42]: 3670 nM; GI50 [43]: 1690 nM; TGI [43]: 3350 nM; GI50 [44]: 1550 nM; TGI [44]: 3210 nM; GI50 [45]: 2130 nM; TGI [45]: 5380 nM; GI50 [46]: 1480 nM; TGI [46]: 3030 nM; GI50 [47]: 1890 nM; TGI [47]: 3680 nM; GI50 [48]: 1910 nM; TGI [48]: 3760 nM; GI50 [49]: 1830 nM; TGI [49]: 3600 nM; GI50 [50]: 512 nM; TGI [50]: 1990 nM; GI50 [51]: 1730 nM; TGI [51]: 3280 nM; GI50 [52]: 1830 nM; TGI [52]: 4360 nM; GI50 [53]: 2140 nM; TGI [53]: 4910 nM
